Data on 9 molecules can be found in ChEMBL document CHEMBL1201862, “PubChem BioAssay data set” (2004).

Common to all, as to assay: growth of human tumour cells (NCI), 48 h
Test [1] deals with HCT-116.
Test [2] relates to HCT-15.
Test [3] relates to HOP-62.
The test system of test [4] is HT-29.
Test [5] has as its system M14.
Test [6] has as its system MCF7.
Test [7] concerns MDA-MB-435.
Test [8] relates to NCI-H226.
The subject of test [9] is NCI-H23.
Test [10] has as its system NCI-H460.
Test [11] concerns OVCAR-3.
Test [12] concerns OVCAR-8.
The test system of test [13] is PC-3.
Test [14] relates to SF-539.
Test [15] concerns SK-MEL-28.
The subject of test [16] is SNB-19.
The test system of test [17] is T47D.

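Five concentrations, 48 hours, 96-well plates. GI50 marks 50% less growth.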 Calls of active or inactive are those of the source. No stated cut-off is given here; in the data, active = GI50 up to about 1.1 µM and inactive = higher.

As for `O=C(N/N=C/c1ccc([N+](=O)[O-])cc1)Nc1ccc(Br)cc1`, the GI50 in test [1] was 45.8 µM (inactive); in test [2] it was over 100 µM; in [3], 32.9 µM (inactive); in [4] it was 97.1 µM (inactive); in test [5], 45.2 µM (inactive); in test [6], 34 µM (inactive). Moreover, the GI50 was 32.6 µM (inactive) in test [7]; > 100 µM (inactive) in [8]; 47.2 µM (inactive) in [9]; > 100 µM (inactive) in test [10]; 32.2 µM (inactive) in test [11]; 40.9 µM (inactive) in test [12]. Besides, the GI50 was > 100 µM (inactive) in test [13]; > 100 µM (inactive) in test [14]; > 100 µM (inactive) in test [15]; 76.4 µM (inactive) in test [16]; 36.1 µM (inactive) in test [17].
Consider `C/C(=C\CNc1ncnc2c1ncn2CCC#N)CO`, for which the GI50 in [1], in test [3], in test [4], in test [5], in test [6] and in [7] was > 100 µM (inactive) in each case. For the same molecule, the GI50 in [8], in test [9], in test [10], in test [11], in test [12] and in [13] was > 100 µM (inactive) throughout. In addition, the GI50 in test [14], in test [15], in test [16] and in [17] was > 100 µM (inactive) each time.
With `O=c1[nH]c(=O)n(C2CC(O)C(CO)O2)cc1/N=N/NCc1ccccc1` (centres undefined), the GI50 was > 100 µM (inactive) in [1]; over 100 µM in [2]; > 100 µM (inactive) in test [3]; > 100 µM (inactive) in test [4]; > 100 µM (inactive) in [5]; > 100 µM (inactive) in test [6]. For the same molecule, the GI50 in [7], in test [8], in test [9], in [10], in test [11] and in test [12] was > 100 µM (inactive) throughout. The GI50 in test [13], in test [15], in test [16] and in test [17] was > 100 µM (inactive) throughout.
In the case of `COc1cc2c3c(n(Cc4ccccc4)c(=O)c2cc1OC)-c1ccccc1C3=O`, the GI50 in test [1] is > 100 µM (inactive); in test [2] it was over 100 µM; in test [3], > 100 µM (inactive); in test [4], > 100 µM (inactive); in test [5], > 100 µM (inactive); in test [6], > 100 µM (inactive). Besides, the GI50 is > 100 µM (inactive) in test [7]; > 100 µM (inactive) in test [8]; > 100 µM (inactive) in test [9]; 26.7 µM (inactive) in test [10]; > 100 µM (inactive) in test [11]; > 100 µM (inactive) in test [12]. For the same molecule, the GI50 in test [13] is > 100 µM (inactive); in test [14] it was 90.2 µM (inactive); in [15], > 100 µM (inactive); in test [16] it was > 100 µM (inactive); in test [17], > 100 µM (inactive).
With `COC(=O)C(Nc1ccc(OC)cc1)c1ccccc1` (centres undefined), the GI50 in test [1] is > 100 µM (inactive); in [2] it was over 100 µM; in [3], > 100 µM (inactive); in test [4] it was > 100 µM (inactive); in [5], > 100 µM (inactive); in test [6] it was > 100 µM (inactive). The GI50 in test [7], in test [9], in test [10], in test [11], in test [12] and in test [13] was > 100 µM (inactive) in each case. Moreover, the GI50 in test [14], in test [15], in test [16] and in [17] was > 100 µM (inactive) throughout.
Regarding `CCn1c(=O)c2nc(SC)sc2n(-c2ccccc2)c1=O`, the GI50 is > 100 µM (inactive) in [1]; over 100 µM in test [2]; > 100 µM (inactive) in test [3]; > 100 µM (inactive) in [4]; > 100 µM (inactive) in [5]; > 100 µM (inactive) in test [6]. The GI50 in test [7], in test [8], in test [9], in [10], in test [11] and in test [12] was > 100 µM (inactive) throughout. The GI50 in test [13], in test [14], in test [15], in [16] and in test [17] was > 100 µM (inactive) each time.
As to `CN(NC(=O)c1ccco1)C1=NCCCCN1`, the GI50 in test [1] was > 100 µM (inactive); in test [2], over 100 µM; in test [3] it was > 100 µM (inactive); in test [4], > 100 µM (inactive); in [5] it was > 100 µM (inactive); in test [6] it was > 100 µM (inactive). Moreover, the GI50 in test [7], in [8], in test [9], in [10], in [11] and in test [12] was > 100 µM (inactive) throughout. Also, the GI50 in test [13], in test [14], in test [15], in [16] and in test [17] was > 100 µM (inactive) in each case.
As to `CC(C)C1=CC23CCC4C(C)(C(=O)O)CCCC4(C)C2CC1C1C(=O)N(c2ccc(C(=O)O)cc2)C(=O)C13` (centres undefined), the GI50 in [1] was > 100 µM (inactive); in test [2], over 100 µM; in test [3], > 100 µM (inactive); in test [4], > 100 µM (inactive); in [5], > 100 µM (inactive); in test [6], > 100 µM (inactive). Moreover, the GI50 in [7], in test [8], in [9], in test [10], in test [11] and in test [12] was > 100 µM (inactive) in each case. Moreover, the GI50 in test [13], in [14], in test [15], in [16] and in test [17] was > 100 µM (inactive) throughout.
On to `C/C=C1/CN2CCC3(O)c4ccccc4N4C=C(C(=O)OC)C1CC2C43O` (centres undefined), for which the GI50 in test [1] was > 100 µM (inactive); in [2] it was over 100 µM; in test [3], > 100 µM (inactive); in test [4], > 100 µM (inactive); in test [5], > 100 µM (inactive); in test [6], > 100 µM (inactive). Further, the GI50 in test [7], in [9], in test [10], in [11], in test [12] and in test [13] was > 100 µM (inactive) each time. Moreover, the GI50 in test [14], in test [15], in [16] and in test [17] was > 100 µM (inactive) each time.
